{
  "source": "patent US11759477B2",
  "about": "“Compositions of nitrates and methods of use thereof” (Heartbeet Ltd., priority 2007, dated 2023)",
  "remark": "listed apart in the source",
  "key": {"[1]": {"procedure": "FIG. 2 is a graph showing changes in oxygen consumption (VO2) following iv infusion of sodium nitrite in increasing doses. Nitrite was infused over a 10 min period in non-smoking healthy male volunteers (30-70 years).\nThe present inventors have been studying the effects of nitrate and nitrite on various physiological functions including blood pressure, glucose metabolism and energy expenditure in vivo. In the examples below, unless otherwise noted, nitrate was administered perorally and nitrite was administered intravenously (iv). Oxygen consumption was measured using indirect calorimetry.\n(§1) Prior to the test the subjects had been on a diet low in nitrate for one day and had been fasting for at least 8 h."}, "clinical": {"assay": "clinical", "procedure": "as §1"}, "[2]": {"format": "in vivo, human"}, "[3]": {"assay": "Blood pressure at rest after dietary sodium nitrate supplementation", "format": "in vivo, human", "conditions": "0.1 mmol/kg body weight/day oral, 3 days, mean±SD, n=9", "procedure": "Subjects: Nine healthy, well trained (VO2peak 55±3.7 ml×kg-1×min-1), males (28±6 years) volunteered for the study. All subjects were trained cyclists or triathletes and well accustomed to the testing procedure. It was chosen to use well-trained subjects to avoid training effects from the tests such as enhanced VO2peak or better mechanical efficiency during submaximal exercise. The protocol was approved by the regional ethics committee in Stockholm and all subjects gave their written consent prior to participation.\nDietary supplementation with nitrate: The aim with the present study was to investigate the effects of two distinct dietary patterns, one with higher, and one with lower than normal nitrate intake. […] During two three-day periods, separated by a washout interval of ten days, the subjects were instructed to avoid all foods with moderate or high nitrate content (all vegetables, all cured meats, strawberries, grapes, and tea). In addition, they were told to restrain from alcohol and tobacco products. Otherwise they were free to eat any food they liked during the three days of restricted diet. The subjects were randomized to start with either ingestion of 0.1 mmol sodium nitrate/kg body weight/day dissolved in water or an equal amount of sodium chloride (placebo). The daily dose was divided and ingested three times daily. The different solutions could not be distinguished by taste or appearance. The daily nitrate dose corresponded to the amount normally found in 150-250 gram of a nitrate-rich vegetable such as spinach, lettuce or beetroot. The last dose of nitrate or placebo was ingested in the morning on the day of measurement (see the main tests below). The order between the nitrate supplementation period (NIT) and the placebo period (CON) was balanced.\nThe main tests: The subjects refrained from heavy exercise three days prior to the main tests and avoided all exercise the day before the tests. They were also told to eat their last light meal at least 3 hours before the start of the tests. […]"}, "[4]": {"assay": "Oral Glucose Tolerance Test after nitrate pre-treatment (n=3)", "format": "in vivo, human", "conditions": "75 g glucose, 60 min after nitrate 1 mmol/kg body weight NaNO3, n=3; placebo 8.2", "procedure": "FIGS. 7a-7c consist of three graphs, showing changes in blood glucose levels after an oral challenge with glucose for three test subjects in a double-blind, placebo-controlled cross-over study (FIGS. 7a, 7b and 7c). A standard oral glucose tolerance test was performed. The subjects (healthy non-smoking volunteers) had their diet supplemented for 3 days with either sodium chloride (placebo) or sodium nitrate (Nitrate) at a dose of 0.1 mmol/kg body weight/day.\nThe increase in plasma glucose after a standard Oral Glucose Tolerance Test (75 g glucose in 250 ml water) is lower when measured after nitrate pre-treatment (1 mmol/kg body weight NaNO3) compared to placebo (NaCl). The study was performed with three healthy test subjects in a double-blind study. Glucose ingestion started 60 min after the nitrate ingestion. Blood glucose levels were measured during the 120 min period after the glucose load (n=3). At 30 min mean plasma glucose was 8.2 mmol/l with placebo and in the same subjects 6.5 mmol/l after nitrate supplementation."}, "[5]": {"assay": "Oral Glucose Tolerance Test after three-day sodium nitrate supplementation (n=8)", "format": "in vivo, human", "conditions": "75 g glucose, 0.1 mmol/kg body weight/day for three days", "procedure": "FIG. 8 is a graph showing changes in blood glucose levels after an oral challenge with glucose in 8 additional subjects in a double-blind, placebo-controlled cross-over study. A standard oral glucose tolerance test was performed. The subjects (healthy non-smoking volunteers) had their diet supplemented for 3 days with either sodium chloride (PLACEBO) or sodium nitrate (NITRATE) at a dose of 0.1 mmol/kg/day. Data are presented as mean±SEM.\nThe lower increase in plasma glucose after nitrate pre-treatment was verified in a further study wherein a standard Oral Glucos Tolerance Test (75 g glucose) was performed in 8 healthy non-smoking subjects after a three-day supplementation with either sodium chloride or sodium nitrate at equal molar amounts (0.1 mmol/kg body weight/day). […] Blood glucose levels were measured at two time points before (−10 and 0 min) and at 15, 30, 45, 60, 75, 90, 105 and 120 min after glucose intake (n=8). At the occasion when the subjects had taken nitrate, the area under the curve for blood glucose was smaller compared to when they had ingested placebo."}, "[6]": {"assay": "Plasma nitrite after intraperitoneal nitrate in wild type, germ free and eNOS knockout mice", "format": "in vivo", "conditions": "10 mg/kg ip, 1 hour later", "procedure": "Three different strains of mice—wild type (n=5 placebo, n=5 nitrate), germ free (n=5 placebo, n=5 nitrate) and eNOS knockout mice (n=2 placebo, n=3 nitrate), were given an intra peritoneal injection of 10 mg/kg body weight nitrate or placebo (NaCl) and plasma level of nitrite measured 1 hour later."}, "[7]": {"assay": "Post-ischemic abdominal aortic blood flow after nitrate infusion", "format": "in vivo", "conditions": "rats, 10 mg/kg iv bolus + 3 mg/kg/h", "procedure": "Rats received an intravenous bolus dose of 10 mg/kg nitrate (NaNO3, n=4) or placebo (NaCl, n=4)) diluted in PBS (pH 7.4) followed by continuous infusion of 3 mg/kg body weight/h. An hour after the addition of nitrate (open boxes) or placebo (filled circles), L-NAME (50 mg/kg) was given, and 10 minutes later, a supra renal clamping of the abdominal aorta was performed. After 30 minutes of ischemia the clamp was removed and the abdominal aortic blood flow was monitored during 60 minutes."}, "[8]": {"assay": "not given", "remark": "listed apart in the source"}, "[9]": {"conditions": "anesthetized rats, 10 mg/kg bolus NaNO3"}},
  "data": [
    {"smiles": "O=NO", "note": "[sodium nitrite]", "values": [
      {"measurement": "Reduction of resting energy expenditure", "setting": "[1]; after 10 min of iv infusion, n=4, major drop at 10 nmoles/kg body weight/min", "result": "10-25%"},
      {"measurement": "Effect on energy expenditure / oxygen consumption", "setting": "[1]; iv 1 nmol/kg body weight/min, 10 min observation period", "result": "no obvious effects"},
      {"measurement": "Oxygen consumption compared to the 10 nmol dose", "setting": "[1]; iv 100 nmol/kg body weight/min", "result": "no further decrease in oxygen consumption"},
      {"measurement": "Methemoglobin after infusion of nitrite", "setting": "clinical; basal 1.1-1.3 mmol/l, did not change significantly", "result": "1.1 to 1.4", "unit": "mmol/L"},
      {"measurement": "concentration at 10 min", "setting": "clinical; human, plasma, iv, 10 nmol/kg body weight/min", "result": "0.37 to 0.48", "unit": "µM"}
    ]},
    {"smiles": "O=[N+]([O-])[O-].[Na+]", "note": "[sodium nitrate]", "values": [
      {"measurement": "Average lowering of VO2 vs CON over the 4 submaximal work rates", "setting": "[2]; 45-80% VO2peak", "result": 0.15, "unit": "L/min"},
      {"measurement": "VE, VE/VO2 or respiratory exchange ratio (RER), NIT vs CON", "setting": "[2]; any of the submaximal work rates", "result": "No significant differences"},
      {"measurement": "Rating of perceived exertion (Borg RPE-scale), NIT vs CON", "setting": "[2]; any work load (submax or max)", "result": "no difference"},
      {"measurement": "Gross efficiency (GE)", "setting": "[2]; average, p=0.02 vs CON", "result": 21.1, "unit": "%"},
      {"measurement": "Delta efficiency (DE)", "setting": "[2]; four lowest work rates, linear regression, p=0.04 vs CON", "result": "22.9±1.9", "unit": "%"},
      {"measurement": "[Hla] (plasma lactate), NIT vs CON", "setting": "[2]; in vivo", "result": "No significant differences"},
      {"measurement": "VO2peak", "setting": "[2]; maximal work, no significant difference, p=0.29", "result": "4.49 ± 0.44", "unit": "L/min"},
      {"measurement": "Maximal work rate", "setting": "[2]; maximal work, p=0.35", "result": "360.6±32.8", "unit": "watt"},
      {"measurement": "VEmax", "setting": "[2]; maximal work, p=0.5", "result": "182 ± 21.4", "unit": "L/min"},
      {"measurement": "HRmax", "setting": "[2]; maximal work, p=0.94", "result": "189.8±7.0", "unit": "beats×min-1"},
      {"measurement": "Heart rate (HR), NIT vs CON", "setting": "[2]; submaximal work", "result": "no difference"},
      {"measurement": "VO2 during the four work rates corresponding to 45-80% VO2peak, vs placebo period", "setting": "[2]; submaximal work", "result": "significantly lower"},
      {"measurement": "VO2 at 80% of VO2peak", "setting": "[2]; submaximal work, 0.1 mmol/kg/day oral, 3 days, p=0.003 vs CON", "result": "3.44 ± 0.31", "unit": "L/min"},
      {"measurement": "Oxygen pulse", "setting": "[2]; submaximal work, p=0.08 vs CON", "result": "20.3±1.9", "unit": "ml×beat-1"},
      {"measurement": "Average resting systolic blood pressure", "setting": "[3]", "result": "112±8", "unit": "mmHg"},
      {"measurement": "Resting diastolic blood pressure", "setting": "[3]", "result": "68±5.5", "unit": "mmHg"},
      {"measurement": "Average resting systolic blood pressure", "setting": "[3]; listed as NIT", "result": "120+/−5.9 mmHg"},
      {"measurement": "Mean plasma glucose at 30 min", "setting": "[4]", "result": 6.5, "unit": "mmol/L"},
      {"measurement": "Area under the curve for blood glucose, vs placebo", "setting": "[5]", "result": "smaller"},
      {"measurement": "Nitrate-induced increase in plasma nitrite across wild type, germ free and eNOS knockout mice", "setting": "[6]", "result": "equal"},
      {"measurement": "Post-ischemic blood flow in early (0-10 minutes) and late (10-60 minutes) phase, vs placebo", "setting": "[7]", "result": "higher blood flow"},
      {"measurement": "Abdominal aortic blood flow after 60 min of reperfusion", "setting": "[7]; L-NAME, 30 min ischemia, control rats 20% of pre-ischemic values", "result": "~75 % of control values"},
      {"measurement": "Plasma nitrate levels immediately after the maximal work test", "setting": "0.1 mmol/kg/day oral, 3 days, after maximal work test", "result": "175 ± 61", "unit": "µM"},
      {"measurement": "Plasma levels of nitrate at rest", "setting": "0.1 mmol/kg/day oral, 3 days, at rest", "result": "182 ± 55", "unit": "µM"},
      {"measurement": "Decrease in nitrite concentrations during exercise, vs CON", "setting": "compared with placebo period", "result": "more pronounced"},
      {"measurement": "Plasma nitrite levels at rest", "setting": "in vivo, po", "result": "226 ± 87", "unit": "nM"},
      {"measurement": "Plasma nitrite levels immediately after the maximal work test", "setting": "in vivo, po", "result": "137 ± 48", "unit": "nM"},
      {"measurement": "Increase in c-GMP concentrations after the maximal work as compared to rest, vs CON", "setting": "p=0.08", "result": "tended to be higher"},
      {"measurement": "Change of plasma nitrate during exercise", "setting": "p=0.8", "result": "did not change"},
      {"measurement": "Concentration of plasma nitrate after infusion", "setting": "[8]; [9]", "result": "increases dramatically"},
      {"measurement": "Plasma nitrite concentrations after infusion", "setting": "[8]; [9]", "result": "increased"},
      {"measurement": "Increase in plasma nitrite, nitrate only vs nitrate+allopurinol", "setting": "[8]; rats, p<0.05", "result": "significantly greater"}
    ]}
  ]
}
